Tests used:
[1] = biological target: IRAK4 (Homo sapiens (Human), UniProt Q9NWZ3); test: IRAK4 ADP-Glo Assay; format: biochemical; details: MBP substrate
Summary of the method: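 Human IRAK4 kinase reaction with MBP substrate plus ATP in Tris-HCl/MgCl2/BSA/DTT buffer, pH 7.4, run 60 min at room temperature or 30 min at 30 °C. ADP formed was measured by ADP-Glo luminescence after ATP depletion (40 min) and detection reagent (30 min).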

[2] = tested on: IL23p19 in THP-1 Cells; test: LPS Induced IL23p19 in THP-1 Cells (with IFNγ Primed) Assay; format: cell-based; details: Homo sapiens, THP-1, 18 h, read-out: IL23 (THP, LPS) (IC50, μM)
Summary of the method: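 THP-1 cells (50K/well) primed with IFNγ (50 ng/mL) about 18 h, then given compound and stimulated with LPS for 18 h at 37 °C. Secreted IL-23p19 measured by sandwich ELISA with chemiluminescent read-out, giving EC50. Cell Titer Glo used on the remaining cells for toxicity.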

[3] = tested on: TNF-α in human PBMCs; test: R848-induced TNF-α in human PBMCs Assay; format: cell-based; details: Homo sapiens, PBMC, 4 h, read-out: TNFα (PBMC, R848) (IC50, μM)
Summary of the method: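 Human PBMCs at 200K/well were pretreated with compound, then R848-stimulated for 4 h at 37 °C, 5% CO2. Supernatant TNF-α quantified by chemiluminescent ELISA; EC50 from curve fitting.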

[4] = tested on: TNF-α in Human Primary Monocyte-Derived Dendritic Cells; test: Gardiquimod-Induced TNF-α in Human Primary Monocyte-Derived Dendritic Cells; format: cell-based; details: Dendritic cell, IFNγ-primed monocyte-derived dendritic cells, 4 μg/ml Gardiquimod, 6 hours, TNF-α ELISA, read-out: TNFα (DC, GARD) (IC50)
Summary of the method: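 Monocytes differentiated 7 days with GM-CSF and IL-4, then primed 24 h with 50 ng/ml IFN-γ. Compound added 1 h before 6 h stimulation with 4 μg/ml Gardiquimod, 0.5% DMSO final. Supernatant TNF-α measured by chemiluminescent ELISA; EC50 from curve fitting.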

Chain of IRAK4 (Q9NWZ3 whole entry): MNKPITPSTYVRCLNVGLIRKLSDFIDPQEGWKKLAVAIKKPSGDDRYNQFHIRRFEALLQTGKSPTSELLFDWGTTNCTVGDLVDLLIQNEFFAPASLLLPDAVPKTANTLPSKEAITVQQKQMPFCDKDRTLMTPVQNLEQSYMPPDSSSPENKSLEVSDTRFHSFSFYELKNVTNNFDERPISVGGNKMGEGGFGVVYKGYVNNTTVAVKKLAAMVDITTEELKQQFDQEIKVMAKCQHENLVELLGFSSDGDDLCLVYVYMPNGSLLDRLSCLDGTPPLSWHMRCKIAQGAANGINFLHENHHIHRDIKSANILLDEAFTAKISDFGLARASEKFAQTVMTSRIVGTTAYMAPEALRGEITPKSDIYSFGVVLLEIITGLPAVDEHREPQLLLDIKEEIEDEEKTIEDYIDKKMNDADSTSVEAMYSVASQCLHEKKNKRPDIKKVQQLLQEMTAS

SMILES | IC50 [1] | IC50 [2] | IC50 [3] | IC50 [4]
CC(C)Oc1cc2c(OC[C@@H]3CCC(=O)N3)ncc(-c3cnn(C4CCN(C)CC4)c3)c2cc1C(N)=O [Compound I-46, (S)-7-isopropoxy-4-(1-(1-methylpiperidin-4-yl)-1H-pyrazol-4-yl)-1-((5-oxopyrrolidin-2-yl)methoxy)isoquinoline-6-carboxamide] | 0.0156 µM | 5.42 µM | 1.25 µM | 0.466 µM
CC(C)Oc1cc2c(O[C@@H]3CCCN(C(=O)CC#N)C3)ncc(C#CC3CN(C(=O)OC(C)(C)C)C3)c2cc1C(N)=O [Compound I-102, tert-butyl (R)-3-((6-carbamoyl-1-((1-(2-cyanoacetyl)piperidin-3-yl)oxy)-7-isopropoxyisoquinolin-4-yl)ethynyl)azetidine-1-carboxylate] | 0.0353 µM | 0.16 µM | 0.19 µM | 0.063 µM
CC(C)Oc1cc2c(OC[C@@H]3CCC(=O)N3)ncc(-c3cn[nH]c3)c2cc1C(N)=O [Compound I-47, (S)-7-isopropoxy-1-((5-oxopyrrolidin-2-yl)methoxy)-4-(1H-pyrazol-4-yl)isoquinoline-6-carboxamide] | 0.0076 µM | 2.73 µM | 0.816 µM | 1.87 µM
CC(C)Oc1cc2c(OC[C@@H]3CCC(=O)N3)ncc(C#CCN3CCOCC3)c2cc1C(N)=O [Compound I-7, (S)-7-isopropoxy-4-(3-morpholinoprop-1-yn-1-yl)-1-((5-oxopyrrolidin-2-yl)methoxy)isoquinoline-6-carboxamide] | 0.0082 µM | 0.527 µM | 0.402 µM | 0.383 µM
CC(C)Oc1cc2c(O[C@@H]3CCCN(C(=O)CC#N)C3)ncc(C#CC3(O)CCN(C(=O)OC(C)(C)C)CC3)c2cc1C(N)=O [Compound I-92, tert-butyl (R)-4-((6-carbamoyl-1-((1-(2-cyanoacetyl)piperidin-3-yl)oxy)-7-isopropoxyisoquinolin-4-yl)ethynyl)-4-hydroxypiperidine-1-carboxylate] | 0.142 µM | 4.92 µM | 3.7 µM | 13.9 µM
CC(C)Oc1cc2c(O[C@@H]3CCCN(C(=O)CC#N)C3)ncc(-c3cnn(CCC4CCOCC4)c3)c2cc1C(N)=O [Compound I-119, (R)-1-((1-(2-cyanoacetyl)piperidin-3-yl)oxy)-7-isopropoxy-4-(1-(2-(tetrahydro-2H-pyran-4-yl)ethyl)-1H-pyrazol-4-yl)isoquinoline-6-carboxamide] | 0.0184 µM | 2.22 µM | 2.51 µM | 1.02 µM
CC(C)Oc1cc2c(OC[C@@H]3CC(F)(F)C(=O)N3)ncc(Br)c2cc1C(N)=O [Compound I-2, (S)-4-bromo-1-((4,4-difluoro-5-oxopyrrolidin-2-yl)methoxy)-7-isopropoxyisoquinoline-6-carboxamide] | 0.0044 µM | 5.53 µM | 1.15 µM | 5.34 µM

Source: patent US20230391748A1, “BICYCLIC INHIBITORS OF IRAK” (priority 2022, published 2023)
